Assay results taken from patent US20250270191A1, “QUINOLONE BCL6 BIFUNCTIONAL DEGRADERS” (Treeline Biosciences, Inc., priority 2022, published 2025).

Experiments:
[1] = Pharmacokinetic assessment in male CD-1 mice (IV and PO); type: in vivo; conditions: mouse, plasma; for clearance: clearance (IV), commonly 1 mg/kg; for clearance / AUC(0-inf): non-compartmental model; for bioavailability: oral bioavailability, PO commonly 10 mg/kg vs IV commonly 1 mg/kg; for Cmax / AUC(0-inf): route not given
Protocol: Pharmacokinetics (PK) studies were conducted on male CD-1 mice by two delivery routes: intravenous (IV) injection and oral gavage (PO). Mice for the IV group (n=3) were allowed free access to food and water and mice for the PO group (n=3) were fasted 6-8 hours prior to dosing. The test articles were formulated in solution for the IV route (commonly 5% DMSO/10% Solutol HS15/85% water (pH 5)) and solution or suspension for the PO route (commonly 100% PEG400). On the day of the experiment, test article was administered via vein injection (commonly 1 mg/kg) for IV route or via oral gavage (commonly 10 mg/kg) for PO route, respectively. Blood samples were collected via the saphenous vein using a needle (commonly 20G) at 0.83 to 24 hours post dose. Approximately 30 μL of blood per timepoint was collected into pre-chilled tubes using K2EDTA as the anti-coagulant. After collection of blood samples at each time point, the blood samples were stored on ice. Blood samples were centrifuged within 0.5 hour of collection to separate plasma. Centrifugation was conducted at 2500×g for 15 minutes at 4° C. Plasma samples were immediately acidified (commonly 0.1M sodium citrate (pH=5) buffer). The samples were then submitted to LC-MS/MS for sample analysis. Pharmacokinetics parameters, including clearance (IV), area under the curve (AUC), and oral bioavailability (% F) were calculated by non-compartmental model.

[2] = target: T1, Human BCL6 protein (N-terminal HiBiT tagged BCL6 in HT1080 cells) (Homo sapiens, UniProt P41182+Q96SW2); assay: HiBiT based BCL6 degradation assay; type: cell-based; conditions: HT1080 cells expressing N-terminal HiBiT tagged BCL6; 5 hours incubation; BCL6 degradation normalized with DMSO control
T1 construct: Human BCL6 protein coding open reading frame; expressed in transfected cells; host or cells: HT1080 (ATCC CCL-121), stably transduced with lentivirus pLV-UBC-N-HiBiT-BCL6-PGK-puro
Summary of the method: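 HT1080 cells stably expressing N-terminal HiBiT-BCL6 were treated with compound dilution series for 5 h at 37° C. in RPMI 1640 with 10% FBS. HiBiT lytic luminescence read after 15 min; degradation normalized to DMSO, with curves fitted by four-parameter logistic model.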

Row | clearance [1] [mL/min/kg] | bioavailability [1] [%] | Cmax [1] [nM] | AUC(0-inf) [1] [µM·h] | Ymin (5 hr) [2] | SMILES
1 | 12.8 | 76.4 | 3400 | 12.6 | ++++ (Ymin ≤ 25%) | CNC(=O)COc1cc2cc(Nc3nc(N4CCN(CC5CCN(c6cccc7c(C8CCC(=O)NC8=O)nn(C)c67)CC5)CC4)ncc3Cl)ccc2n(C)c1=O (stereo not drawn) [Compound 101, 2-((6-((5-chloro-2-(4-((1-(3-(2,6-dioxopiperidin-3-yl)-1-methyl-1H-indazol-7-yl)piperidin-4-yl)methyl)piperazin-1-yl)pyrimidin-4-yl)amino)-1-methyl-2-oxo-1,2-dihydroquinolin-3-yl)oxy)-N-methylacetamide]
2 | 10.8 | 67.5 | 2550 | 13.5 | +++ (25% < Ymin ≤ 50%) | CNC(=O)COc1cc2cc(Nc3nc(N4CCN(CC5CCN(c6ccc7c(C8CCC(=O)NC8=O)nn(C)c7c6)CC5)CC4)ncc3Cl)ccc2n(C)c1=O (stereo not drawn) [Compound 102, 2-((6-((5-chloro-2-(4-((1-(3-(2,6-dioxopiperidin-3-yl)-1-methyl-1H-indazol-6-yl)piperidin-4-yl)methyl)piperazin-1-yl)pyrimidin-4-yl)amino)-1-methyl-2-oxo-1,2-dihydroquinolin-3-yl)oxy)-N-methylacetamide]
3 | – | – | – | – | ++++ (Ymin ≤ 25%) | CNC(=O)COc1cc2cc(Nc3nc(N4CC5(CCC(Nc6ccc7c(C8CCC(=O)NC8=O)nn(C)c7c6)CC5)C4)ncc3Cl)ccc2n(C)c1=O (stereo not drawn) [Compound 341, 2-((6-((5-chloro-2-(7-((3-(2,6-dioxopiperidin-3-yl)-1-methyl-1H-indazol-6-yl)amino)-2-azaspiro[3.5]nonan-2-yl)pyrimidin-4-yl)amino)-1-methyl-2-oxo-1,2-dihydroquinolin-3-yl)oxy)-N-methylacetamide]
4 | – | – | – | – | +++ (25% < Ymin ≤ 50%) | CNC(=O)COc1cc2cc(Nc3nc(N4CC5(CCC(Nc6cccc7c(C8CCC(=O)NC8=O)nn(C)c67)CC5)C4)ncc3Cl)ccc2n(C)c1=O (stereo not drawn) [Compound 342, 2-((6-((5-chloro-2-(7-((3-(2,6-dioxopiperidin-3-yl)-1-methyl-1H-indazol-7-yl)amino)-2-azaspiro[3.5]nonan-2-yl)pyrimidin-4-yl)amino)-1-methyl-2-oxo-1,2-dihydroquinolin-3-yl)oxy)-N-methylacetamide]
5 | – | – | – | – | +++ (25% < Ymin ≤ 50%) | CNC(=O)COc1cc2cc(Nc3nc(N4CCC5(CCC(Nc6ccc7c(C8CCC(=O)NC8=O)nn(C)c7c6)CC5)C4)ncc3Cl)ccc2n(C)c1=O (stereo not drawn) [Compound 343, 2-((6-((5-chloro-2-(8-((3-(2,6-dioxopiperidin-3-yl)-1-methyl-1H-indazol-6-yl)amino)-2-azaspiro[4.5]decan-2-yl)pyrimidin-4-yl)amino)-1-methyl-2-oxo-1,2-dihydroquinolin-3-yl)oxy)-N-methylacetamide]
6 | – | – | – | – | ++ (50% < Ymin ≤ 70%) | CNC(=O)COc1cc2cc(Nc3nc(N4CCC5(CCC(Nc6cccc7c(C8CCC(=O)NC8=O)nn(C)c67)CC5)C4)ncc3Cl)ccc2n(C)c1=O (stereo not drawn) [Compound 344, 2-((6-((5-chloro-2-(8-((3-(2,6-dioxopiperidin-3-yl)-1-methyl-1H-indazol-7-yl)amino)-2-azaspiro[4.5]decan-2-yl)pyrimidin-4-yl)amino)-1-methyl-2-oxo-1,2-dihydroquinolin-3-yl)oxy)-N-methylacetamide]
7 | – | – | – | – | ++++ (Ymin ≤ 25%) | CNC(=O)COc1cc2cc(Nc3nc(N4CCN(C(=O)C5CCN(c6cccc7c(C8CCC(=O)NC8=O)nn(C)c67)CC5)CC4)ncc3Cl)ccc2n(C)c1=O (stereo not drawn) [Compound 345, 2-((6-((5-chloro-2-(4-(1-(3-(2,6-dioxopiperidin-3-yl)-1-methyl-1H-indazol-7-yl)piperidine-4-carbonyl)piperazin-1-yl)pyrimidin-4-yl)amino)-1-methyl-2-oxo-1,2-dihydroquinolin-3-yl)oxy)-N-methylacetamide]
8 | – | – | – | – | ++++ (Ymin ≤ 25%) | CNC(=O)COc1cc2cc(Nc3cc(N4CCN(CC5CCN(c6cccc7c(C8CCC(=O)NC8=O)nn(C)c67)CC5)CC4)ncc3Cl)ccc2n(C)c1=O (stereo not drawn) [Compound 346, 2-((6-((5-chloro-2-(4-((1-(3-(2,6-dioxopiperidin-3-yl)-1-methyl-1H-indazol-7-yl)piperidin-4-yl)methyl)piperazin-1-yl)pyridin-4-yl)amino)-1-methyl-2-oxo-1,2-dihydroquinolin-3-yl)oxy)-N-methylacetamide]
9 | – | – | – | – | ++++ (Ymin ≤ 25%) | CC(=O)COc1cc2cc(Nc3nc(N4CCN(CC5CCN(c6cccc7c(C8CCC(=O)NC8=O)nn(C)c67)CC5)[C@@H](C)C4)ncc3Cl)ccc2n(C)c1=O (stereo partly drawn) [Compound 347a, 3-(7-(4-(((S)-4-(5-chloro-4-((1-methyl-2-oxo-3-(2-oxopropoxy)-1,2-dihydroquinolin-6-yl)amino)pyrimidin-2-yl)-2-methylpiperazin-1-yl)methyl)piperidin-1-yl)-1-methyl-1H-indazol-3-yl)piperidine-2,6-dione]
10 | – | – | – | – | ++++ (Ymin ≤ 25%) | CC(=O)COc1cc2cc(Nc3nc(N4CCC5(CCN(CC6CCN(c7ccc8c(C9CCC(=O)NC9=O)nn(C)c8c7)CC6)CC5)CC4)ncc3Cl)ccc2n(C)c1=O (stereo not drawn) [Compound 348, 3-(6-(4-((9-(5-chloro-4-((1-methyl-2-oxo-3-(2-oxopropoxy)-1,2-dihydroquinolin-6-yl)amino)pyrimidin-2-yl)-3,9-diazaspiro[5.5]undecan-3-yl)methyl)piperidin-1-yl)-1-methyl-1H-indazol-3-yl)piperidine-2,6-dione]
